According to paper PMC6150024, “In Vitro Evaluation of Cytotoxicity and Permeation Study on Lysine- and Arginine-Based Lipopeptides with Proven Antimicrobial Activity” (Molecules : A Journal of Synthetic Chemistry and Natural …, 2017):
≈ marks a conversion by molar mass, not a printed value. Where two headings read alike, the source gives them in different places. Residues, ends and D or L forms follow the SMILES beside them. *: point of attachment. Palmitoyl = CCCCCCCCCCCCCCCC(=O)*

Experiments:
[1] = system: Candida albicans (ATCC 10231); assay type: cell-based; details: ATCC 10231, 48 h
Procedure: (§1) The compounds were dissolved in a mixture of dimethyl sulphoxide (DMSO) and phosphate buffer (PBS). […] MIC was determined by the serial dilution method on polystyrene 96-well plates with Mueller–Hinton II broth (MHB II) for reference bacterial strains: Staphylococcus aureus (ATCC 25923) and Escherichia coli (ATCC 25922), while for Candida albicans (ATCC 10231), the Sabouraud dextrose broth was applied. The microorganisms were obtained from the Polish Collection of Microorganisms (Wroclaw, Poland). Bacteria were cultured at 37 °C under aerobic conditions overnight in Brain Heart Infusion broth, centrifuged at 1000 rpm for 8 min, washed thrice with PBS and resuspended in MHB II. Candida albicans was cultured in Sabouraud dextrose broth for 48 h at 27 °C under aerobic conditions, centrifuged at 1000 rpm for 8 min, washed thrice with PBS and resuspended in Sabouraud dextrose broth. Bacterial (5 × 10^5 CFU/mL) and fungal (5 × 10^4 CFU/mL) suspensions were exposed to lipopeptides applied at graded concentrations (range 1–512 mg/L) for 18 h at 37 °C under aerobic conditions (bacteria) and 48 h at 27 °C under aerobic conditions (fungi). MIC was taken as the lowest concentration at which no visible growth of bacteria/fungi was observed. MBC and MFC were determined using MH II agar and Sabouraud Dextrose agar, for bacteria and fungi respectively. The contents of wells with MICs and two subsequent higher concentrations were transferred to agar plates and cultivated for 18 h at 37 °C under aerobic conditions (bacteria) and 48 h at 27 °C under aerobic conditions (fungi). The MBC and MFC were taken as the lowest concentrations at which no colony forming units were found. All tests were performed in triplicate.

[2] = system: Escherichia coli (ATCC 25922); assay type: cell-based; details: for MBC E. coli / MIC E. coli: ATCC 25922, 18 h
Procedure: as §1

[3] = system: Staphylococcus aureus (ATCC 25923); assay type: cell-based; details: for MBC S. aureus / MIC S. aureus: ATCC 25923, 18 h
Procedure: as §1

HaCaT keratinocytes = assay type: cell-based, human
Procedure: HaCaT cells were obtained from American Type Culture Collection (ATCC). Cells were cultivated in Dulbecco’s modified Eagle Medium (Invitrogen) with 10% fetal bovine serum in humidified incubator at […] in 5% CO2 and cultured in 96-well plates and allowed to grow to 60–70% confluence prior to the start of the experiments.
The MTT assay is a colorimetric technique for assessing cell metabolic activity based on NAD(P)H-dependent cellular oxidoreductase enzymes activity that, under defined conditions, reflects the number of viable cells present. Viable cells reduce the tetrazolium dye MTT 3-(4,5-dimethylthiazol-2-yl)-2,5-diphenyltetrazolium bromide to its insoluble formazan, which has a purple colour. The colour intensity reflects the number of live cells and can be measured spectrophotometrically. Briefly, one day after culturing 500 cells per well, different concentrations of compounds were applied. After a 24-h incubation with the specified compounds, a medium containing 1 mg/mL MTT was added to the cells (HaCaT keratinocytes) up to a final concentration of 0.5 mg/mL and incubated at 37 °C for 4 h. The medium was then aspired, and the formazan product was solubilized with DMSO. The absorbance at 630 nm (background absorbance) was subtracted and absorbance measured at 570 nm for each well. There were 6 replicates for each tested concentration. All experiments were repeated at least twice. The resulting IC50 values were calculated with a GraFit 7 software (v. 7.0, Erithacus, Berkley, CA, USA).

[4] = assay type: physicochemical
Procedure: as §1

[5] = system: Staphylococcus aureus (ATCC 25923); set-up: method as in 2 sources, ref 11 = [11]; PMID 28203232; doi:10.3389/fmicb.2017.00123; 11. Greber K.E. Dawgul M. Kamysz W. Sawicki W. Cationic net charge and counter ion type as antimicrobial activity determinant factors of short lipopeptides Front. Microbiol. 2017 8 1 10 10.3389/fmicb. ||| ref 12 = [12]; PMID 24748099; doi:10.1007/s00726-014-1744-9; 12. Greber K.E. Dawgul M. Kamysz W. Sawicki W. Łukasiak J. Biological and surface-active properties of double-chain cationic amino acid-based surfactants Amino Acids 2014 46 1893 1898 10.1007/s00726-0; details: cited from earlier work; for MIC S. aureus: ATCC 25923, serial dilution; for MBC S. aureus: ATCC 25923
[6] = system: Escherichia coli (ATCC 25922); set-up: method as in 2 sources, ref 11 = [11]; PMID 28203232; doi:10.3389/fmicb.2017.00123; 11. Greber K.E. Dawgul M. Kamysz W. Sawicki W. Cationic net charge and counter ion type as antimicrobial activity determinant factors of short lipopeptides Front. Microbiol. 2017 8 1 10 10.3389/fmicb. ||| ref 12 = [12]; PMID 24748099; doi:10.1007/s00726-014-1744-9; 12. Greber K.E. Dawgul M. Kamysz W. Sawicki W. Łukasiak J. Biological and surface-active properties of double-chain cationic amino acid-based surfactants Amino Acids 2014 46 1893 1898 10.1007/s00726-0; details: cited from earlier work; for MIC E. coli: ATCC 25922, serial dilution; for MBC E. coli: ATCC 25922
[7] = system: Candida albicans (ATCC 10231); set-up: method as in 2 sources, ref 11 = [11]; PMID 28203232; doi:10.3389/fmicb.2017.00123; 11. Greber K.E. Dawgul M. Kamysz W. Sawicki W. Cationic net charge and counter ion type as antimicrobial activity determinant factors of short lipopeptides Front. Microbiol. 2017 8 1 10 10.3389/fmicb. ||| ref 12 = [12]; PMID 24748099; doi:10.1007/s00726-014-1744-9; 12. Greber K.E. Dawgul M. Kamysz W. Sawicki W. Łukasiak J. Biological and surface-active properties of double-chain cationic amino acid-based surfactants Amino Acids 2014 46 1893 1898 10.1007/s00726-0; details: cited from earlier work; for MIC C. albicans: ATCC 10231, serial dilution; for MFC C. albicans: ATCC 10231
human keratinocytes = details: cited from earlier work
From the text: (§2) The results of the MTT assay obtained in this study indicate high toxicity of lipopeptides containing one palmitic acid chain. This contradicts the previously advanced hypotheses about the selectivity of antimicrobial peptides. According to some authors, peptides designed based on naturally occurring compounds in human organisms are expected to be safe to human cells and their selectivity results from the presence of cholesterol and arrangement of lipids in the eukaryotic cell membrane. […] In the previou ...

human red blood cells = details: cited from earlier work
From the text: as §2

[8] = classification of antimicrobial peptides from patent
[9] = MTT assay, 24 h exposure, 6 replicates per concentration, experiments repeated at least twice

| Molecule | MFC C. albicans [1] | MIC C. albicans [1] | MBC E. coli [2] | MIC E. coli [2] | MBC S. aureus [3] | MIC S. aureus [3] | IC50 ± SD on HaCaT keratinocytes (HaCaT keratinocytes; 24 h) | Concentration at which solutions were obtained [4] | other results |
| --- | --- | --- | --- | --- | --- | --- | --- | --- | --- |
| CCCCCCCCCCCCCCCC(=O)N[C@@H](CCCNC(=N)N)C(=O)N[C@@H](CCCNC(=N)N)C(=O)N[C@@H](CCCNC(=N)N)C(N)=O [Lipopeptide C16-RRR-NH2] (Palmitoyl-Arg-Arg-Arg-NH2) | 256 µg/mL (≈ 354 µM) | 128 µg/mL (≈ 177 µM) | 16 µg/mL (≈ 22.1 µM) | 16 µg/mL (≈ 22.1 µM) | 4 µg/mL (≈ 5.52 µM) | 2 µg/mL (≈ 2.76 µM) | 3.2 ± 1.4 mg/L (≈ 4.42 µM) | – | – |
| CCCCCCCCCCCCCCCC(=O)N[C@@H](CCCCN)C(=O)N[C@@H](CCCCN)C(N)=O [Lipopeptide C16-KK-NH2] | – | – | – | – | – | – | 1.8 ± 0.2 mg/L (≈ 3.52 µM) | 512 µg/mL | MIC S. aureus ([5]; Table 1 ref 11): 4 µg/mL (≈ 7.82 µM); MBC S. aureus ([5]; Table 1 ref 11): 4 µg/mL (≈ 7.82 µM); MIC E. coli ([6]; Table 1 ref 11): 8 µg/mL (≈ 15.6 µM); MBC E. coli ([6]; Table 1 ref 11): 8 µg/mL (≈ 15.6 µM); MIC C. albicans ([7]; Table 1 ref 11): 128 µg/mL (≈ 250 µM); MFC C. albicans ([7]; Table 1 ref 11): 128 µg/mL (≈ 250 µM); Concentration with negative influence on proliferation and viability of human keratinocytes (human keratinocytes): ≥ 1 µg/mL |
| (C10)2-KKKK-NH2 | – | – | – | – | – | – | – | – | Activity class against E. coli by classification of Shai and Abrahami [2, 8]: active; Activity class against S. aureus by classification of Shai and Abrahami [3, 8]: highly active; IC50 ± SD on HaCaT keratinocytes (HaCaT keratinocytes; [9]): 49.4 ± 9.1 mg/L; MIC S. aureus ([5]; Table 1 ref 12): 8 µg/mL; MBC S. aureus ([5]; Table 1 ref 12): 16 µg/mL; MIC E. coli ([6]; Table 1 ref 12): 16 µg/mL; MBC E. coli ([6]; Table 1 ref 12): 16 µg/mL; MIC C. albicans ([7]; Table 1 ref 12): 128 µg/mL; MFC C. albicans ([7]; Table 1 ref 12): 256 µg/mL; Toxicity towards human red blood cells at microbiologically active concentrations (human red blood cells): non-toxic |
| CCCCCCCCCCCCCCCC(=O)N[C@@H](CCCCN)C(=O)NCCCC[C@H](N)C(N)=O [Lipopeptide C16-KεK-NH2] | 256 µg/mL (≈ 500 µM) | 128 µg/mL (≈ 250 µM) | 32 µg/mL (≈ 62.5 µM) | 16 µg/mL (≈ 31.3 µM) | 8 µg/mL (≈ 15.6 µM) | 8 µg/mL (≈ 15.6 µM) | 7.4 ± 0.9 mg/L (≈ 14.5 µM) | – | – |
| CCCCCCCCCCCCCCCC(=O)N[C@@H](CCCCN)C(=O)N[C@@H](CCCNC(=N)N)C(=O)N[C@@H](CCCCN)C(N)=O [Lipopeptide C16-KRK-NH2] (Palmitoyl-Lys-Arg-Lys-NH2) | 256 µg/mL (≈ 383 µM) | 128 µg/mL (≈ 192 µM) | 16 µg/mL (≈ 24 µM) | 8 µg/mL (≈ 12 µM) | 16 µg/mL (≈ 24 µM) | 4 µg/mL (≈ 5.99 µM) | 2.3 ± 0.4 mg/L (≈ 3.44 µM) | 512 µg/mL | – |
| CCCCCCCCCCCCCCCC(=O)N[C@@H](CCCCN)C(=O)N[C@@H](CCCCN)C(=O)N[C@@H](CCCCN)C(N)=O [Lipopeptide C16-KKK-NH2] | – | – | – | – | – | – | 3.2 ± 0.1 mg/L (≈ 5 µM) | 512 µg/mL | MIC S. aureus ([5]; Table 1 ref 11): 4 µg/mL (≈ 6.25 µM); MBC S. aureus ([5]; Table 1 ref 11): 8 µg/mL (≈ 12.5 µM); MIC E. coli ([6]; Table 1 ref 11): 8 µg/mL (≈ 12.5 µM); MBC E. coli ([6]; Table 1 ref 11): 16 µg/mL (≈ 25 µM); MIC C. albicans ([7]; Table 1 ref 11): 128 µg/mL (≈ 200 µM); MFC C. albicans ([7]; Table 1 ref 11): 128 µg/mL (≈ 200 µM) |
| (C12)2-KKKK-NH2 | – | – | – | – | – | – | – | – | IC50 ± SD on HaCaT keratinocytes (HaCaT keratinocytes; [9]): 42.1 ± 9.1 mg/L; MIC S. aureus ([5]; Table 1 ref 12): 16 µg/mL; MBC S. aureus ([5]; Table 1 ref 12): 32 µg/mL; MIC E. coli ([6]; Table 1 ref 12): 64 µg/mL; MBC E. coli ([6]; Table 1 ref 12): 64 µg/mL; MIC C. albicans ([7]; Table 1 ref 12): 256 µg/mL; MFC C. albicans ([7]; Table 1 ref 12): 512 µg/mL |
| CCCCCCCCCCCCCCCC(=O)N[C@@H](CCCNC(=N)N)C(=O)N[C@@H](CCCNC(=N)N)C(N)=O [Lipopeptide C16-RR-NH2] (Palmitoyl-Arg-Arg-NH2) | 256 µg/mL (≈ 451 µM) | 128 µg/mL (≈ 225 µM) | 16 µg/mL (≈ 28.2 µM) | 16 µg/mL (≈ 28.2 µM) | 8 µg/mL (≈ 14.1 µM) | 8 µg/mL (≈ 14.1 µM) | 1.9 ± 0,3 mg/L | – | – |
